The text below walks through data of US10759785B2, “Compounds” (ENTERPRISE THERAPEUTICS LIMITED, priority 2016, dated 2020).

Where a name gives a salt, the structure may show the parent alone.

In the assay the target is T1, ENaC (Homo sapiens, UniProt P37088+P51168+P51170).
T1 construct: host or cells: primary human bronchial epithelial cells (HBECs) differentiated at an air-liquid interface
T1 sequence (P37088 1-669): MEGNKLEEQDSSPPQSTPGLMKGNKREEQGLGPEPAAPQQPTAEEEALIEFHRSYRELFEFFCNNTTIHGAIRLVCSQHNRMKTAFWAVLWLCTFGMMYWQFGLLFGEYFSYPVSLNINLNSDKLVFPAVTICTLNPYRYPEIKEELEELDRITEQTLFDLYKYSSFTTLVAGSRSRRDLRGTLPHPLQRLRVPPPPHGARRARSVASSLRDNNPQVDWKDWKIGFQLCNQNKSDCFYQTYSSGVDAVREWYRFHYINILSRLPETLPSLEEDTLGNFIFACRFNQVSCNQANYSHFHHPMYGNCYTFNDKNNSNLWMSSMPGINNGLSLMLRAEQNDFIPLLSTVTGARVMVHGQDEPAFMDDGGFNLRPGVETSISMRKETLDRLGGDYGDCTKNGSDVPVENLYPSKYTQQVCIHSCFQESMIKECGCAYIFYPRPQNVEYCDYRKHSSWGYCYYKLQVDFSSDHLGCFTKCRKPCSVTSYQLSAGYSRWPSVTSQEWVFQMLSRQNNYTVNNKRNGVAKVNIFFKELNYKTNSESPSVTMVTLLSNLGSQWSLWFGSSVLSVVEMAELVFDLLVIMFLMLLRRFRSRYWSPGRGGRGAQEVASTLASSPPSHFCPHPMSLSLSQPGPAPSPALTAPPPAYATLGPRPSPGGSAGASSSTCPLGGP
T1 sequence (P51168 1-640): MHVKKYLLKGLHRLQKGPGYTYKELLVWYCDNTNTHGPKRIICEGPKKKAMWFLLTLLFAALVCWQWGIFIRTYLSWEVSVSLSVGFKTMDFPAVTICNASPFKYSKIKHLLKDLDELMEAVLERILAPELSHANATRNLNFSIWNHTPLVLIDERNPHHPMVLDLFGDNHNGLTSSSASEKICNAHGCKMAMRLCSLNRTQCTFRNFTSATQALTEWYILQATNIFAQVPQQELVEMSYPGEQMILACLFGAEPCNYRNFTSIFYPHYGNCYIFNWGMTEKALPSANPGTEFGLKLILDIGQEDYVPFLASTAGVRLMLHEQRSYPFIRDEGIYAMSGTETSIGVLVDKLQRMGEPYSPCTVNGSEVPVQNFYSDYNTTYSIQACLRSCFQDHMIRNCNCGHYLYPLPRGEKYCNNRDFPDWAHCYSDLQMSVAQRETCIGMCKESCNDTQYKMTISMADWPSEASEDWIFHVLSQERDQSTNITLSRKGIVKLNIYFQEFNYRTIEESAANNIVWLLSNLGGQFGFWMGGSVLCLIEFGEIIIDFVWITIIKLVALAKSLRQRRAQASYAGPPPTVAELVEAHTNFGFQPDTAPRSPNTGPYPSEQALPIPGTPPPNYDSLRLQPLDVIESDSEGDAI
T1 sequence (P51170 1-649): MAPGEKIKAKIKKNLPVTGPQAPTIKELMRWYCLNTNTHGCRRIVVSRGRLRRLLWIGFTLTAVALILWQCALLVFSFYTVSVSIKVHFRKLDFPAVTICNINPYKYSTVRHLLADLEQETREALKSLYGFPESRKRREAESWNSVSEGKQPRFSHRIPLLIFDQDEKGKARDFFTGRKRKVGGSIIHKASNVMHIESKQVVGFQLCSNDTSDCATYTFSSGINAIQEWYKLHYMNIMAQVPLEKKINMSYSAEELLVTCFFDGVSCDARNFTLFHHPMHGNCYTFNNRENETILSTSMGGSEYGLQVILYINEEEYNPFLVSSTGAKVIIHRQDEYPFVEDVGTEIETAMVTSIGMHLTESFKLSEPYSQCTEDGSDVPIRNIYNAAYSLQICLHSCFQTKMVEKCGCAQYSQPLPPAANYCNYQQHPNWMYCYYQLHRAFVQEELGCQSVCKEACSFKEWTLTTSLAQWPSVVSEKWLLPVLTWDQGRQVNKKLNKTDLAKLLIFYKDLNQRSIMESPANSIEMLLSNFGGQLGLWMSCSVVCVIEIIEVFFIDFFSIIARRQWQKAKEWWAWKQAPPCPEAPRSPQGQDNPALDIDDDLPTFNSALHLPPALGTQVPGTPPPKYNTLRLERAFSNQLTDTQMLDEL
Nature of the assay: Short circuit current assay to determine ENaC blocker potency in human bronchial epithelial cells. It counts as cell-based. As to conditions: 50% inhibition of total amiloride-sensitive ISC, HBECs, apical addition; read-out: Averages. ENaC Ic50 μm Avg. How it is done:
Example 27—Short Circuit Current Assay to Determine ENaC Blocker Potency in Human Bronchial Epithelial Cells
Human bronchial epithelial cells (HBECs) (Lonza, UK) were cultured using a modification of the method described by Coote et al, (2008). Cells were seeded into plastic T-75 flasks and grown in Bronchial Epithelial Cell Growth Medium (BEGM) (Lonza, UK) supplemented with bovine pituitary extract (52 ng/mL), hydrocortisone (0.5 μg/mL), human recombinant Epidermal Growth Factor (0.5 ng/mL), epinephrine (0.5 ng/mL), transferrin (10 ng/mL), insulin (5 ng/mL), retinoic acid (0.1 ng/mL), triiodothyronine (6.5 ng/mL), gentamycin (50 μg/mL) and amphotericin-B (50 ng/mL). Medium was changed every 48 hours until cells were 90% confluent. Cells were then passaged and seeded (8.25×10^5 cells/insert) onto polycarbonate Snapwell™ inserts (Costar, UK) in differentiation media containing 50% DMEM in BGEM with the same supplements as above but without triiodothyronine and a final retinoic acid concentration of 50 nM (all-trans retinoic acid; Sigma-Aldrich, UK). Cells were maintained submerged for the first 7 days in culture after which time they were exposed to an apical air interface for the remainder of the culture period. From the first day of establishment of an ALI, HBEC were fed with a DMEM:HAMS F-12 (1:1) media containing 2% Ultroser G (Pall BioSepra, France) with gentamycin (50 μg/mL) and amphotericin B (50 ng/mL). Cells were used for short-circuit current assay between days 14-21 after the establishment of the ALI. At all stages of culture, cells were maintained at 37′C in 5% CO2 in an air incubator.
Short-Circuit Current (ISC) Measurements
Snapwell inserts were mounted in Costar Vertical Diffusion Chambers (Costar, UK) and were bathed with continuously gassed Ringer solution (5% CO2 in O2; pH 7.4) maintained at 37° C. containing (in mM): 120 NaCl, 25 NaHCO3, 3.3 KH2PO4, 0.8 K2HPO4, 1.2 CaCl2, 1.2 MgCl2 and 10 glucose. The solution osmolarity was always between 280-300 mOsm/kg H2O for all physiological salt solutions used. Cells were voltage clamped to 0 mV (model EVC4000, WPI). Transepithelial resistance (RT) was measured by applying a 2 mV pulse at 30 s intervals and calculating RT by Ohm's law. Data were recorded using a PowerLab workstation (ADInstruments, UK).
ENaC blocker compounds were added to the apical chamber from a 1000-fold stock solution (prepared in DMSO) to achieve a cumulative concentration response in terms of the inhibition of the basal ISC. At the completion of the concentration response, a supra-maximal concentration of amiloride (10 μM) was added. The concentration of test compound that induced a 50% inhibition of the total amiloride-sensitive ISC (IC50) was calculated using GraphPad Prism v6.05.
Consider `CCn1c(CNC(=O)c2nc(Br)cnc2N)[n+](CC)c2ccc(-c3cnn(C4CCN(C(=O)OC(C)(C)C)CC4)c3)cc21.[I-]` [Example 20, 2-{[(3-amino-6-bromopyrazin-2-yl)formamido]methyl}-6-(1-{1-[(tert-butoxy)carbonyl]piperidin-4-yl}-1H-pyrazol-4-yl)-1,3-diethyl-1H-1,3-benzodiazol-3-ium iodide], for which the 50% inhibitory concentration (IC50) was determined as 1 nM. For `CCn1c(CNC(=O)c2nc(Br)cnc2N)[n+](CC)c2ccc(-c3cnn(C4CCNCC4)c3)cc21.Cl.[I-]` [Example 21, 2-{[(3-amino-6-bromopyrazin-2-yl)formamido]methyl}-1,3-diethyl-6-[1-(piperidin-4-yl)-1H-pyrazol-4-yl]-1H-1,3-benzodiazol-3-ium hydrochloride iodide] the value was 1 nM. For `CCn1c(CNC(=O)c2nc(Br)cnc2N)[n+](CC)c2ccc(-c3cnn(C4CCN(C(=N)N)CC4)c3)cc21.O=CO.O=C[O-]` [Example 22, 2-{[(3-amino-6-bromopyrazin-2-yl)formamido]methyl}-6-[1-(1-carbamimidoylpiperidin-4-yl)-1H-pyrazol-4-yl]-1,3-diethyl-1H-1,3-benzodiazol-3-ium formic acid formate] the value was 2 nM. For `CCn1c(CNC(=O)c2nc(Br)cnc2N)[n+](CC)c2ccc(-c3cnn(C4CCN(C[C@H](O)[C@@H](O)[C@H](O)[C@H](O)CO)CC4)c3)cc21.O=CO.[Cl-]` [Example 23, 2-{[(3-amino-6-bromopyrazin-2-yl)formamido]methyl}-1,3-diethyl-6-(1-{1-[(2S,3R,4R,5R)-2,3,4,5,6-pentahydroxyhexyl]piperidin-4-yl}-1H-pyrazol-4-yl)-1H-1,3-benzodiazol-3-ium formic acid chloride], the IC50 turned out to be 2 nM. For `CCn1c(CNC(=O)c2nc(Br)cnc2N)[n+](CC)c2ccc(OCCNC(=O)OC(C)(C)C)cc21.O=C[O-]` [Example 24, 2-{[(3-amino-6-bromopyrazin-2-yl)formamido]methyl}-6-(2-{[(tert-butoxy)carbonyl]amino}ethoxy)-1,3-diethyl-1H-1,3-benzodiazol-3-ium formate] the value was 2 nM; for `CCn1c(CNC(=O)c2nc(Br)cnc2N)[n+](CC)c2ccc(OCCN)cc21.Cl.[Cl-]` [Example 25, 2-{[(3-Amino-6-bromopyrazin-2-yl)formamido]methyl}-6-(2-aminoethoxy)-1,3-diethyl-1H-1,3-benzodiazol-3-ium hydrochloride chloride], 2 nM. For `CCn1c(CNC(=O)c2nc(C#N)cnc2N)[n+](CC)c2ccc(OC)cc21` [Example 26, 2-{[(3-amino-6-cyanopyrazin-2-yl)formamido]methyl}-1,3-diethyl-6-methoxy-1H-1,3-benzodiazol-3-ium formate] the value was 8 nM.

As a reminder, the IC50 is the point on the concentration scale where inhibition reaches its midpoint.
